Assay results: PMC3682544, “Structural Analysis of Collagen Type I Interactions with Human Fibronectin Reveals a Cooperative Binding Mode” (The Journal of Biological Chemistry, 2013)
Where two headings read alike, the source gives them in different places. Each block holds one compound with its values, some of them ahead of it. Square brackets hold non-standard residues; d marks the D form. Ends that are not written are not given here. Peptide text beside a SMILES is read from it. * marks the point of attachment. 5FAM = O=C1OC2(c3ccc(O)cc3Oc3cc(O)ccc32)c2ccc(C(=O)*)cc21; Hyp = O=C(O)[C@@H]1C[C@@H](O)CN1

How the values were obtained:
[1] = molecular target: T1, GBD (gelatin-binding domain, ^6FnI^1–2FnII^7–9FnI, residues 305–608) of human FN (Homo sapiens, UniProt P02751, H307D/N528Q/R534K); assay: Fluorescence polarization titrations of 5-carboxyfluorescein-labelled collagen peptides with GBD; settings: FA: fluorescence polarization, 75 nM N-terminal 5-carboxyfluorescein peptide, increasing protein, PBS, 25 °C, single binding model
T1 construct: FN fragments corresponding to residues 305–608 (GBD); made in house
Text: (§1) FN fragments corresponding to residues 305–608 (GBD), 305–515 (^6FnI^1–2FnII^7FnI), and 516–608 (^8–9FnI) and bearing single amino acid substitutions to improve solubility and protein yields (H307D, N528Q, and R534K) were produced as described previously ([7], [26], [32]). Synthetic collagen peptides were purchased from GL Biochem (Shanghai, China); their sequences are provided in Table 1, and unless fluorescently tagged, they included a C-terminal tyrosine residue for UV determination of peptide concentration. Fluorescent peptides had 5-carboxyfluorescein attached to the N-terminal amine group.
Fluorescence polarization measurements were performed at 25 °C in PBS using SpectraMax M5 (Molecular Devices) and PHERAstar FS (BMG Labtech) fluorometers. […] Differences in fluorescence polarization were fit using a single binding model in the program Origin (OriginLab) ([33]).

[2] = molecular target: T2, ^8–9FnI (FN residues 516–608) (Homo sapiens, UniProt P02751, N528Q/R534K); assay: ^1H-^15N heteronuclear single quantum correlation NMR titrations with ^8–9FnI; format: binding; settings: NMR ^1H-^15N HSQC titration, PBS pH 7.2, 25 °C; for Kd: single binding event fit
T2 construct: and 516–608 (^8–9FnI); made in house
Text: as §1
(§2) NMR spectrometers used superconducting magnets (Oxford Instruments) at 950- and 500-MHz proton resonance frequencies (home-built or Bruker AVANCE II consoles and room temperature or cryogenic probe heads, respectively). Spectra were recorded in PBS (20 mM Na2HPO4 (pH 7.2) and 150 mM NaCl) with 1% 4,4-dimethyl-4-silapentane-1-sulfonic acid as a calibration standard. Experiment temperatures were optimized to avoid resonance broadening due to intermediate exchange phenomena and corresponded to 25 °C (^8–9FnI) or 37 °C (^6FnI^1–2FnII^7FnI). Sequential chemical shift assignments were performed earlier ([7], [26]). Analysis of spectral perturbations upon protein interactions and determination of equilibrium parameters were performed as described ([33]).

[3] = molecular target: T3, ^6FnI^1–2FnII^7FnI (FN residues 305–515) (Homo sapiens, UniProt P02751, H307D); assay: ^1H-^15N heteronuclear single quantum correlation NMR titrations with ^6FnI^1–2FnII^7FnI; format: binding; settings: NMR ^1H-^15N HSQC titration, chemical shift analysis, PBS pH 7.2, 37 °C
T3 construct: 305–515 (^6FnI^1–2FnII^7FnI); made in house
Text: as §1, §2

[4] = molecular target: T2, ^8–9FnI (FN residues 516–608); settings: NMR titration; cited from earlier work
Text: TABLE 1 KD values for collagen I peptide binding to FN fragments α1 and α2 chain numbering is taken to begin at the estimated start of the helical region. “O” in peptide sequences denotes 4-hydroxyproline. NMR, ^1H-^15N heteronuclear single quantum correlation NMR titrations; FA, fluorescence polarization titrations using N-terminal 5-carboxyfluorescein labeling. In titrations where no binding was | column: KD / ^8–9FnI || To firmly establish the elusive molecular interplay between the GBD and the most common collagen (type I), we first need to understand the exact nature of the binding site. […] At a distance of ∼1/10 (D-period 1, peptides AN and CN) or 3/4 (D-period 4, peptides BN and DN) from the N terminus of the triple hel ... || FIGURE 3. GBD-binding sites on collagen type I. A, schematic representation of the collagen type I α1 and α2 chains and the two FN-binding sites at 1/10 and 3/4 sequence distance from the collagen N terminus. ^8–9FnI-binding sites (peptides AN, BN, CN, and DN) are shown in blue, with the sequences immediately C-terminal thereof (peptides AC, BC, CC, and DC) shown in red. Dissociation constants are indicated. Highlighted in green is the only site where the two GBD subfragments, ^6FnI^1–2FnII^7FnI and ^8–9FnI, bind collagen type I cooperatively. B, amino acid sequences of peptides A–D. Conserved ...
Target sequence in this assay (P02751 516-608 N528Q/R534K): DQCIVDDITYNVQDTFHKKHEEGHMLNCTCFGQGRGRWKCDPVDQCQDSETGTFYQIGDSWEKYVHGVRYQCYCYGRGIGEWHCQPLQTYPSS

[5] = molecular target: fibronectin modules 8-9FnI, residues 516-608 (human) (UniProt P02751); assay: NMR titration; 1H-15N HSQC of 8-9FnI, collagen peptide titrated in, PBS (20 mM Na2HPO4 pH 7.2, 150 mM NaCl), 25 °C; single binding event
[6] = molecular target: collagen type I alpha1 peptide B, G772-G820, 5-carboxyfluorescein labelled; assay: fluorescence polarisation; 75 nM 5-carboxyfluorescein-labelled peptide, increasing concentrations of protein, 96-well plates, 25 °C, PBS; single binding model
[7] = molecular target: collagen type I alpha2 peptide D, G772-G820, 5-carboxyfluorescein labelled; assay: as above
[8] = molecular target: collagen type I alpha1 peptide A, G70-G118, 5-carboxyfluorescein labelled; assay: as above
[9] = molecular target: collagen type I alpha2 peptide C, Q72-G118, 5-carboxyfluorescein labelled; assay: as above

T1 sequence (P02751 305-608 H307D/N528Q/R534K): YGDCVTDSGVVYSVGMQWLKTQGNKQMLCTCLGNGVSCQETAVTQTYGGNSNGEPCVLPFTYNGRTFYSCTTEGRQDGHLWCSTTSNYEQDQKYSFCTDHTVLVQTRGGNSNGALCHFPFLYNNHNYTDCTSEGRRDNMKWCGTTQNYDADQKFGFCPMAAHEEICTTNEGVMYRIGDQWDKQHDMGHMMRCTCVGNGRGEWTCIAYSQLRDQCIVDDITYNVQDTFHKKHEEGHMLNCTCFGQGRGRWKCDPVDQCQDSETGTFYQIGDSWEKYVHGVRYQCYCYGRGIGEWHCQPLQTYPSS
T3 sequence (P02751 305-515 H307D): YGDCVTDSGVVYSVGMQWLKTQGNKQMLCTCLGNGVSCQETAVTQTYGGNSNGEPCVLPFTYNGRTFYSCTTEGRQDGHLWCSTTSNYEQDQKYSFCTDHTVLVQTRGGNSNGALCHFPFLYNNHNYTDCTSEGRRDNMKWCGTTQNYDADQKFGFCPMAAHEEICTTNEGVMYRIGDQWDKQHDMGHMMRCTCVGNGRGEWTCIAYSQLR

Compound: 5FAM-GPQGLLGA[Hyp]GILGL[Hyp]GSRGERGL[Hyp]GVAGAVGEPGPLGIAGP[Hyp]GARGP[Hyp]G [D]
Kd [1]: 5.8 ± 1 µM

Compound: 5FAM-QGARGF[Hyp]GT[Hyp]GL[Hyp]GFKGIRGHNGLDGLKGQ[Hyp]GA[Hyp]GVKGE[Hyp]GA[Hyp]GENG [C]
Kd [1]: 25.6 ± 2.6 µM

Compound: CSCC[C@H](NC(=O)CNC(=O)[C@@H]1C[C@@H](O)CN1C(=O)[C@H](CC(C)C)NC(=O)CNC(=O)[C@H](C)NC(=O)[C@@H](NC(=O)CNC(=O)[C@@H]1C[C@@H](O)CN1C(=O)[C@H](CC(C)C)NC(=O)CN)[C@@H](C)O)C(=O)N[C@@H](CCCCN)C(=O)NCC(=O)N[C@@H](Cc1c[nH]cn1)C(=O)N[C@@H](CCCNC(=N)N)C(=O)NCC(=O)N[C@@H](Cc1ccccc1)C(=O)N[C@@H](CO)C(=O)NCC(=O)N[C@@H](CC(C)C)C(=O)N[C@@H](CC(=O)O)C(=O)NCC(=O)N[C@@H](Cc1ccc(O)cc1)C(=O)O [AN] (H-GL[Hyp]GTAGL[Hyp]GMKGHRGFSGLDGY-OH)
Kd [2]: 143 ± 17.3 µM

Compound: BN: Synthetic collagen type I α1 peptide 775–799 with C-terminal tyrosine (GLPGQRGVVGLPGQRGERGFPGLPGY; 4-hydroxyproline at peptide positions 3, 12, 21 and 24 (printed O); its leading GLO differs from the native GIA in peptide B. The text and PDB 3)
Kd [4]: 5 ± 1 µM

Compound: DN: Synthetic collagen type I α2 peptide 778–799 with C-terminal tyrosine (GAPGILGLPGSRGERGLPGVAGY; 4-hydroxyproline at peptide positions 3, 9 and 18 (printed O); C-terminal Tyr added for UV quantification)
Kd [4]: 8 ± 2 µM

Compound: collagen type I alpha1 peptide BN with Val783 changed to serine, G778-G799 with C-terminal tyrosine
Kd [5]: 97 µM

The remaining lines, values ahead:

Kd [1]: 97.9 ± 8.2 µM
Compound: 5FAM-GPQGARGL[Hyp]GTAGL[Hyp]GMKGHRGFSGLDGAKGDAGPAGPKGE[Hyp]GS[Hyp]GENG [A]

Kd [1]: 15.2 ± 2 µM
Compound: 5FAM-GPQGIAGQRGVVGL[Hyp]GQRGERGF[Hyp]GL[Hyp]GPSGE[Hyp]GKQGPSGASGERGP[Hyp]G [B]

KD ^8–9FnI (NMR interaction regime, in words) [2]: fast interaction regime
Kd [2]: 96.5 ± 11.4 µM
Compound: CC(C)C[C@H](NC(=O)CNC(=O)[C@H](CO)NC(=O)[C@@H](NC(=O)CNC(=O)[C@H](CCCNC(=N)N)NC(=O)[C@H](CCC(N)=O)NC(=O)CN)C(C)C)C(=O)N1C[C@H](O)C[C@H]1C(=O)NCC(=O)N[C@@H](CCC(N)=O)C(=O)N[C@@H](CCCNC(=N)N)C(=O)NCC(=O)N[C@@H](CCC(=O)O)C(=O)N[C@@H](CCCNC(=N)N)C(=O)NCC(=O)N[C@@H](Cc1ccccc1)C(=O)N1C[C@H](O)C[C@H]1C(=O)NCC(=O)N[C@@H](CC(C)C)C(=O)N1C[C@H](O)C[C@H]1C(=O)NCC(=O)N[C@@H](Cc1ccc(O)cc1)C(=O)O [BN-S783V] (H-GQRGVSGL[Hyp]GQRGERGF[Hyp]GL[Hyp]GY-OH)

Kd [3]: 248 ± 11.6 µM
Compound: CC(C)C[C@H](NC(=O)CNC(=O)[C@H](CC(=O)O)NC(=O)[C@H](CC(C)C)NC(=O)CNC(=O)[C@H](CC(N)=O)NC(=O)[C@H](Cc1c[nH]cn1)NC(=O)CN)C(=O)N[C@@H](CCCCN)C(=O)NCC(=O)N[C@@H](CCC(N)=O)C(=O)N1C[C@H](O)C[C@H]1C(=O)NCC(=O)N[C@@H](C)C(=O)N1C[C@H](O)C[C@H]1C(=O)NCC(=O)N[C@H](C(=O)N[C@@H](CCCCN)C(=O)NCC(=O)N[C@@H](CCC(=O)O)C(=O)N1C[C@H](O)C[C@H]1C(=O)NCC(=O)N[C@@H](C)C(=O)N1C[C@H](O)C[C@H]1C(=O)NCC(=O)N[C@@H](CCC(=O)O)C(=O)N[C@@H](CC(N)=O)C(=O)NCC(=O)N[C@@H](Cc1ccc(O)cc1)C(=O)O)C(C)C [CC] (H-GHNGLDGLKGQ[Hyp]GA[Hyp]GVKGE[Hyp]GA[Hyp]GENGY-OH)

Kd [2]: 2000 ± 200 µM
Compound: CC[C@H](C)[C@H](NC(=O)CNC(=O)[C@H](CCCCN)NC(=O)[C@H](Cc1ccccc1)NC(=O)CNC(=O)[C@@H]1C[C@@H](O)CN1C(=O)[C@H](CC(C)C)NC(=O)CNC(=O)[C@@H]1C[C@@H](O)CN1C(=O)[C@@H](NC(=O)CNC(=O)[C@@H]1C[C@@H](O)CN1C(=O)[C@H](Cc1ccccc1)NC(=O)CN)[C@@H](C)O)C(=O)N[C@@H](CCCNC(=N)N)C(=O)NCC(=O)N[C@@H](Cc1c[nH]cn1)C(=O)N[C@@H](CC(N)=O)C(=O)NCC(=O)N[C@@H](CC(C)C)C(=O)N[C@@H](CC(=O)O)C(=O)NCC(=O)N[C@@H](Cc1ccc(O)cc1)C(=O)O [CN] (H-GF[Hyp]GT[Hyp]GL[Hyp]GFKGIRGHNGLDGY-OH)

Kd [6]: 15 µM
Kd [7]: 6 µM
Kd [8]: 98 µM
Kd [9]: 26 µM
Compound: gelatin-binding domain (GBD) of human fibronectin, 6FnI1-2FnII7-9FnI, residues 305-608 (from UniProt P02751 305-608) (domain or fragment)
